Article PMC7815742 (Nature Communications, 2021)

B1: mycobacterial homolog of Insig protein (MvINS) (natural protein)
chain: MRLRISEAVVLFLLGAVAALIGDHSHVVTGTTVYHTDAVPFVWSSPFWFPILVGAATASLAELRLHLPAPRDGVTARQALGGVAAVVGTYVTTALVHAFPVVPVTALVCAAAAITWCVLGDGPGAACGVVIAVIGPAVEIALVQLGVFAYHPDSDGLFGVAPFLAPLYFAFGVVAALLGELAVARRPQLGPPVCDTVSRGPGAG
notes: mycobacterial homolog of Insig, MvINS; PDB 4XU4; theoretical protomer mass 23.6 kDa

Legend:
(UniProt A0A3A0FWV3) = target: T1, (UniProt A0A3A0FWV3); assay: in vitro [3H]-progesterone reduction assay with purified enzyme, HPLC radiodetection; format: biochemical, Pseudomonadota bacterium
T1 construct: GenBank RIL07334.1, purified wild type
T1 sequence (A0A3A0FWV3 1-253 limits assumed): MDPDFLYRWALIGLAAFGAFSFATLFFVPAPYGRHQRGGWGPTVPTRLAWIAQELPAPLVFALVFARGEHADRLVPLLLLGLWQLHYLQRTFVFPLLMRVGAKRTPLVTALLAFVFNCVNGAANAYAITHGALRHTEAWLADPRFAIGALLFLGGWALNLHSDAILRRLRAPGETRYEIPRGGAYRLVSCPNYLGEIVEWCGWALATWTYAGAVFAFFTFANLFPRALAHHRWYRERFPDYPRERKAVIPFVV

[1] = target: the molecule itself; assay: AUC; sedimentation velocity, 20 °C, 25 mM HEPES pH 7.5, 150 mM NaCl, 5% glycerol, 0.02% DDM, 5 mM DTT; masses calculated with SEDFIT and GUSSI

Row | Molecule | IC50 ((UniProt A0A3A0FWV3)) | stoichiometry N [1]
1 | C[C@]12C=CC(=O)N[C@@H]1CC[C@@H]1[C@@H]2CC[C@]2(C)[C@@H](C(=O)Nc3cc(C(F)(F)F)ccc3C(F)(F)F)CC[C@@H]12 [Duta, dutasteride] | 1590 ± 190 nM | 
2 | B1 |  | 3
